Measurements from patent publication US10450610B2, “Single nucleotide polymorphisms (SNP) and association with resistance to immune tolerance induction” (University of Tennessee Research Foundation, priority 2008, dated 2019).
Several values for one entry are separate records, joined by “and”; a condition that tells them apart may be missing. Identical values can stand only once.

How the values were obtained:
[1] = system: BALB/c mice and DBA/1 lac J mice; assay: Effect of commonly used immunomodulatory drugs on oral tolerance induction (oral OVA or oral bovine CII); assay type: in vivo; conditions: for effect on tolerance induction: oral OVA in BALB/c mice and oral bovine CII in DBA/1 lac J mice; for OT induction to CII: DBA/1 lac J mice, prednisone at 10 mg/day equivalent
Method: Further, studies were conducted using oral OVA (1 mg/day×5 days) in BALB/c mice and oral bovine CII (10 μg×8 doses over 14 days) in DBA/1 lac J mice to test the effects of commonly used immunomodulatory drugs on immune induction ([…], hydroxychloroquine 400 mg/day, methotrexate 17.5 mg/week, leflunomide 20 mg/day after 100 mg/day×3 loading doses, sulfasalazine 2.5 gm/day, D-penicillamine 750 mg/day, IM gold, and etanercept 25 mg twice weekly).

spleen cells [2] = assay: COX-2 inhibitor SC′236 and oral tolerance induction; spleen cell IFNγ with α1(II) CB mixture (ELISA); assay type: in vivo, mice; conditions: for oral tolerance induction to CII: DBA/1 mice, assessed by IFNγ production by spleen cells
Method: Groups of 8 mice each were gavaged on MTTHF×2 weeks in the a.m. with PBS or SC′236 (5 μg/gm in 100 μl PBS). SC′236 (Searle) is ˜2000× more inhibitory for COX-2 than for COX-1.
Four of the mice given PBS in the a.m. and 4 mice given SC′236 in the a.m. were gavaged in the p.m. with 10 μg bovine type II collagen (CII). The other 4 mice in the a.m. PBS and a.m. SC′236 group were gavaged in the p.m. with 0.1M acetic acid (HAc) the vehicle the CII was dissolved in. After these 8 day feedings, all mice were rested for 1 week and then immunized with 100 μg of CII in complete Freund's adjuvant. After 10 days, all mice were sacrificed, and spleen cells (2×10^6/ml) were isolated and set up in culture with PBS and bovine α1(II) (50 μg/ml) CB mixture. After 4 days culture, the supernatants were harvested and IFNγ levels determined by ELISA (Endogen). Since the PBS+spleen cell culture from all mice produced between 1-12 pg/ml IFNγ, only the α1(II) data are plotted. All groups were compared to Placebo control group by Student's 2 sample t test.

DBA/1 mice = assay: NSAID inhibition of oral tolerance induction to collagen II; arthritic joints scored; assay type: in vivo
Method: To determine whether tolerance induction to orally fed bovine CII in DBA/1 mice would be abrogated by orally fed NSAID, 3 groups of 20-22 DBA/1 mice were fed (by gavage) eight doses (Monday, Tuesday, Thursday, and Friday for 2 weeks) of the following: Placebo (saline) in the a.m. and Placebo (0.1 M HAc) in the p.m.; Placebo (saline) in the a.m. and 10 μg native bovine CII in the p.m.; or piroxicam (2.4 μg/gm) in the a.m. and native bovine CII (10 μg) in the p.m. After 1 week, all mice were immunized (intradermally at the base of tail) with 100 μg of bovine CII emulsified in complete Freund's adjuvant. Animals were placed in coded cages and were scored by a blinded observer twice weekly for the number of arthritic joints (joints swollen, red, and/or deformed).

DBA/1 Lac mice = assay: Low dose oral collagen II tolerance induction; arthritis after CII/CFA immunization; assay type: in vivo; conditions: 8 times over 2 weeks, FIG. 6
Method: Groups of 12 mice were fed oral CII at the doses indicated 8 times over 2 weeks […]. After 4 days rest, the mice were then immunized at the base of the tail with 100 μg CII emulsified with complete Freund's adjuvant. The degree of arthritis was assessed by a blinded observer for 8 weeks.
The percent of mice with grade 3 or 4 arthritis is indicated on the Y-axis. The biphasis response is due to induction of different tolerance mechanisms by low dose vs high dose CII. Low dose CII (10μg) induces regulatory T cells while high dose (500 μg) induces anergy or clonal deletion.

spleen cells [3] = assay: IFNγ production by spleen cells of fed, CII-immunized mice cultured with α1(II) CB peptide mixture (ELISA); assay type: in vivo; conditions: fed with Placebo (alone); FIG. 8
From the text: To assess the effect of oral feeding of piroxicam to another group of mice fed Placebo or CII on spleen cell IFNγ production in a manner similar to the experiment in FIG. 7, four groups of mice (4 mice per group) were gavaged 8 days over 2 weeks with the following: Piroxicam a.m.—CII p.m.; Piroxicam a.m.—HAc p.m.; Saline a.m.—CII p.m.; or Saline a.m.—HAc p.m. After 1 week rest, all mice were immunized at the base of the tail with a CII—complete Freund's adjuvant emulsion. After 14 days, mice ere sacrificed, and spleen cells were isolated and set up in culture with PBS or α1(II)CB peptide mixture. After 72 h culture, harvested supernatants ere analyzed for IFNγ levels by ELISA.

[4] = system: mesenteric lymph node cells; assay: Mesenteric lymph node cell proliferation with α1(II) CB peptide mixture; assay type: in vivo, mice; conditions: mice fed either CII or piroxicam alone; FIG. 12
PBMC = assay: Oral collagen II in RA patients; IFNγ production (stimulation index) by PBMC cultured with α1(II); assay type: in vivo, human; conditions: for non-responders to oral CII: FIG. 13
Method: Immunological tolerance, defined as a ≥30% reduction in IFN-γ production by PBMC cultured with α1(II) of type II collagen, was examined in patients. Patients that were taking disease-modifying antirheumatic drugs, anti-TNF agents and/or non steroidal inflammatories were administered misoprostol 100 μg bid to reverse the non steroidal antiinflammatory inhibition of oral tolerance. Patients were randomized to receive “low” or “high” doses of CII. The Low Dose group (n=38) took daily 30 μg/day bovine CII for 10 weeks, then 50 μg/day for 10 weeks and then 70 μg/day for 10 weeks. The High Dose group (n=41) took 90 μg/day for 10 weeks, 110 μg/day for 10 weeks and then 130 μg/day for 10 weeks.
Heparinized blood was obtained at baseline and after each of the 10 week treatment periods. The blood was diluted 1:3 with RPMI 1640 containing penicillin (100 u/ml) and streptomycin (100 μg/ml) within 1-4 hours after collection, wrapped in paper, and placed in a styrofoam box containing a “cold pack” and shipped overnight. The PBMC were isolated from the blood samples and set up in culture with bovine α1(II) 25 μg/ml, PHA 10 μg/ml or with 50 ul PBS. After 6 days in culture, cell free supernatants were collected and stored at −70° for up to 7 months at which time all samples from a given patient were assayed for IFNγ by commercial ELISA (R & D Systems). The results are shown as in FIG. 13.
The IFNγ stimulation index (SI) was calculated as
[formula] The SI for patients receiving each of the low doses (30 μg, 50 μg and 70 μg/day) was compared with their SI at baseline before each of the 10 week treatments and similarly with the high dose CII group (90 μg, 110 μg and 130 μg/day) with their SI at baseline before each of the 10 week treatments.
SNP analysis was performed of 16 responders and 8 non-responders to oral CII to find the frequency of SNPs closely associated on chromosomes next to several cytokines and chemokines known to be important for oral tolerance induction. The 16 patients were those with had ≥50% reduction in IFNγ α1 stimulation index from baseline to either the 30 μg/day, 50 μg/day, 110 μg/day or 130 μg/day dose of CII (“OT Responders”). The 8 patients with increases in IFNγ α1 S.I. at the 30 μg/day, 50 μg/day, 110 μg/day or 130 μg/day doses of oral CII were selected (“OT Non-Responders”).

[5] = individual RA patients, No SNP A-1515737 AA genotype
[6] = individual RA patients, SNP A-1515737 AA genotype

Compound: O=C(O)c1cc(/N=N/c2ccc(S(=O)(=O)Nc3ccccn3)cc2)ccc1O [sulfasalazine]
- effect on tolerance induction [1]: did not completely suppress tolerance

Compound: NS(=O)(=O)c1ccc(-n2nc(C(F)(F)F)cc2-c2ccc(Cl)cc2)cc1 [SC′236]
- oral tolerance induction to CII (spleen cells [2]; listed as SC236): blocked oral tolerance induction
- oral tolerance induction to CII (spleen cells [2]; listed as SC'236): abrogates oral tolerance induction
- IFNγ production by spleen cells stimulated by α1(II) CB digest (spleen cells [2]; SC′236 5 μg/gm fed alone, FIG. 9): lower IFNγ production
- IFNγ production by spleen cells cultured with α1(II) CB digest (spleen cells [2]; SC′236 + CII fed, p<0.01, FIG. 9): significant increase

Compound: etanercept
- effect on tolerance induction [1]: did not completely suppress tolerance

Compound: COc1ccc2cc(CCC(C)=O)ccc2c1 [nabumatone]
- oral tolerance (OT) induction (DBA/1 mice; DBA/1 mice fed CII, FIG. 7 / similar studies (data not shown)): abrogated OT induction

Compound: CC(=O)OC[C@H]1O[C@@H]([S-])[C@H](OC(C)=O)[C@@H](OC(C)=O)[C@@H]1OC(C)=O.CCP(CC)CC.[Au+] [auranofin]
- OT induction to CII [1]: did block OT induction to CII

Compound: CN(Cc1cnc2nc(N)nc(N)c2n1)c1ccc(C(=O)N[C@@H](CCC(=O)O)C(=O)O)cc1 [methotrexate]
- effect on tolerance induction [1]: did not completely suppress tolerance

Compound: bovine type II collagen [CII]
- incidence of arthritis (percent of mice with grade 3 or 4 arthritis) (DBA/1 Lac mice; 10 μg/day oral CII): most effective in reducing the incidence of arthritis
- incidence of arthritis (percent of mice with grade 3 or 4 arthritis) (DBA/1 Lac mice; 500 μg/day oral CII): also, but less, effective
- percent of arthritic joints (DBA/1 mice; Placebo+CII (10 μg, eight doses) vs Placebo+Placebo fed controls, p<0.03, FIG. 7): less
- IFNγ production by spleen cells cultured with α1(II) CB peptide mixture (spleen cells [3]): reduced production of IFNγ
- IFNγ production by spleen cells stimulated by α1(II) CB digest (spleen cells [2]; CII 10 μg fed, vs Placebo control, p<0.025, FIG. 9): significant reduction
- proliferation in response to α1(II) CB peptide mixture [4]: did not proliferate
- suppression of IFNγ production (dose response) (PBMC; 30 μg, 50 μg and 110 μg/day of oral CII): maximal suppression
- IFNγ SI (PBMC; 70 μg and 90 μg/day doses): did not reduce
- IFNγ SI compared to baseline values (PBMC; 70 μg/day dose): significantly increased
- patients with a 50% reduction in α1(II) stimulated IFNγ production (PBMC; 30, 50 and 110 μg/day oral CII): 69%
- non-responders to oral CII (PBMC; 30-50 μg/day dose): 30%
- non-responders to oral CII (PBMC; 110-130 μg/day dose): 28%
- number of CII OT Non-Responder patients (PBMC; AA genotype): 7
- number of CII OT Responder patients (PBMC; AA genotype): 1
- number of CII OT Non-Responder patients (PBMC; Non-AA genotype): 2
- number of CII OT Responder patients (PBMC; Non-AA genotype): 15
- Ratio: After/baseline (IFNγ α1(II) SI) (PBMC; group mean, No SNP A-1515737 AA genotype): 0.427 ± 0.217
- α1(II) SI After Oral CII (PBMC; group mean, No SNP A-1515737 AA genotype (17 patients)): 175 ± 46
- Ratio: After/baseline (IFNγ α1(II) SI) (PBMC; group mean, SNP A-1515737 AA genotype): 3.512 ± 1.347
- α1(II) SI After Oral CII (PBMC; group mean, SNP A-1515737 AA genotype (7 patients)): 613 ± 256
- OT Responder (PBMC; [5]): Yes (15×) and No (2×)
- Ratio: After/baseline (IFNγ α1(II) SI) (PBMC; [5]): 0.4932 and 1.9178 and 2.9064 and 0.0573 and 0.1034 and 0.4119 and 0.0789 and 0.0694 and 0.0631 and 0 and 0.0018 and 0.0176 and 0.3520 and 0.0423 and 0.2454 and 0.0030 and 0.1008
- α1(II) SI After Oral CII (PBMC; individual RA patients, No SNP A-1515737 AA genotype, 30, 50 or 110 μg/day for 10 weeks): 360 and 280 and 590 and 152 and 6 and 276 and 18 (2×) and 503 and 19 and 0 and 3 and 7 and 358 and 93 and 540 and 246
- OT Responder (PBMC; [6]): No (6×) and Yes
- Ratio: After/baseline (IFNγ α1(II) SI) (PBMC; [6]): 2.3774 and 5.0500 and 2.9778 and 10.8021 and 0.0040 and 1.3688 and 2.0050
- α1(II) SI After Oral CII (PBMC; individual RA patients, SNP A-1515737 AA genotype, 30, 50 or 110 μg/day for 10 weeks): 630 and 404 and 268 and 2020 and 3 and 167 and 800
- oral tolerance to CII (reduced immune response to fed antigen) (PBMC; patients taking DMARDs, anti-TNF agents and NSAIDS, low dose misoprostol given): can be induced
- IFNγ α1(II) S.I. after oral CII treatment (PBMC; patients who carried SNP A-1515737 AA, p=0.230): no significant change
- IFNγ α1(II) S.I. after oral CII compared to baseline values (PBMC; patients without SNP A-1515737 AA (ROT1 AA) genotype, p<0.001): significant reduction
- IFNγ SI (PBMC; ten weeks treatment with 30, 50, 110 and 130 μg/day oral CII, vs baseline): marked suppression

Compound: C[C@]12C=CC(=O)C=C1CC[C@@H]1[C@@H]2C(=O)C[C@@]2(C)[C@H]1CC[C@]2(O)C(=O)CO [prednisone]
- OT induction to CII [1]: did block OT induction to CII
- effect on tolerance induction [1]: did not completely suppress tolerance

Compound: CCN(CCO)CCCC(C)Nc1ccnc2cc(Cl)ccc12 (centres unmarked) [hydroxychloroquine]
- effect on tolerance induction [1]: did not completely suppress tolerance

Compound: CC(C)(S)[C@@H](N)C(=O)O [D-penicillamine]
- effect on tolerance induction [1]: did not completely suppress tolerance

Compound: Cc1oncc1C(=O)Nc1ccc(C(F)(F)F)cc1 [leflunomide]
- effect on tolerance induction [1]: did not completely suppress tolerance
